Results published in patent US8436011B2, “Pyridinopyridinone derivatives, preparation thereof and therapeutic use thereof” (Sanofi, priority 2008, dated 2013).
Where two headings read alike, the source gives them in different places.

Experiments:
[1] = biological target: T1, FLT3 receptor (MV4-11 cell line bearing an FLT3ITD mutant) (Homo sapiens, UniProt P36888, INS600HVDFREYEYD); assay: Inhibition of FLT3 receptor tyrosine kinase activity: proliferation of MV4-11 cells (CellTiter-Glo, 72 h); type: cell-based; details: 72 hours incubation, read-out: IC50 (concentration that inhibits 50% of the proliferation of the MV4-11 cells)
T1 construct: MV4-11 cell line, which line is established from a leukaemia of constitutively active AML type bearing an FLT3ITD mutant; endogenous in cells; host or cells: MV4-11
T1 sequence (P36888 with tags, fused parts or gaps INS600HVDFREYEYD): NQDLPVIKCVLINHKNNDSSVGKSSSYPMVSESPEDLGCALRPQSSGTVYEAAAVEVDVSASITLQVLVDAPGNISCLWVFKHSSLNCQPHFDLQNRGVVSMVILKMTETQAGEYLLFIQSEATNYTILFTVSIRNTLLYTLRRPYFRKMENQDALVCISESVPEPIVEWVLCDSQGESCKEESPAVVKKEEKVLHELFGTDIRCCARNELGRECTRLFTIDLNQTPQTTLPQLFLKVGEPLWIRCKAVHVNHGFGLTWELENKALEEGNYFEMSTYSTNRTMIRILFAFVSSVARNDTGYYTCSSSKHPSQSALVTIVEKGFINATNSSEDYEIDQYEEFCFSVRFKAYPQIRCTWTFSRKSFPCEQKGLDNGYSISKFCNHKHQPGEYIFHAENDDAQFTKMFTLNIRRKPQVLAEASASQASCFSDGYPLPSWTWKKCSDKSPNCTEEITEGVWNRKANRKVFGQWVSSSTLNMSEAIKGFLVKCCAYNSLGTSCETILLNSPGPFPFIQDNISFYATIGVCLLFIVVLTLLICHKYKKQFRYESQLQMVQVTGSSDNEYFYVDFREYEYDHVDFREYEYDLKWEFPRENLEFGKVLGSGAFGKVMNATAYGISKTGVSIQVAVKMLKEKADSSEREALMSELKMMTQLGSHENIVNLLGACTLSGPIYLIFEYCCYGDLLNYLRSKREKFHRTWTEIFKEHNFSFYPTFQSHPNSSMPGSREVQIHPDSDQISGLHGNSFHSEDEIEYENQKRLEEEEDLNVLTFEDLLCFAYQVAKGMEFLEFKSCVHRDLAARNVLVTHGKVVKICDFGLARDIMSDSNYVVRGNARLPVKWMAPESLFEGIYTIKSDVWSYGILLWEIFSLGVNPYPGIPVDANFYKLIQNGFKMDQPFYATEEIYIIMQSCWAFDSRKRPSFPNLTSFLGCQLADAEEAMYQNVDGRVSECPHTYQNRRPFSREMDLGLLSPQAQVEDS
Procedure: Measurement of Inhibition of the Tyrosine Kinase Activity of the FLT3 Receptor
The inhibitory effect of the compounds according to the invention towards the tyrosine kinase activity of the FLT3 receptor was evaluated on an MV4-11 cell line, which line is established from a leukaemia of constitutively active AML type bearing an FLT3ITD mutant. The inhibitory activity is correlated to the inhibition of cell growth, according to the protocols described by Spiekermann, K. et al., Blood, 2003, 101, (4) 1494-1504 and O'Farrell, A.-M. et al., Blood, 2003, 101, (9) 3597-3605.
(§1) MV4-11 cells are washed with PBS buffer and inoculated in 96-well plates, at a density of 1×10^5 cells/ml (100 μL per well), in RPMI 1640 containing 10% FCS, in the presence or absence of the test compounds. After incubation for 72 hours, the viable cells are quantified by measuring the cellular ATP by means of the CellTiter-Glo® kit (Promega, Cat G7571). The cells are treated according to the instructions given by the kit manufacturer, and the luminescence is measured using a Luminoskan (Ascent, Labsystem) with the following parameters: measurement: single; integration time: 1000 ms, lag time: 5 s.
The inhibitory activity with respect to the FLT3 receptor is given by the concentration that inhibits 50% of the proliferation of the MV4-11 cells.

[2] = biological target: fusion protein FIP1L1-PDGF-Rα (EOL-1 cell line) (Homo sapiens, UniProt P16234); assay: Inhibition of PDGF alpha receptor tyrosine kinase activity: proliferation of EOL-1 cells (CellTiter-Glo, 72 h); type: cell-based
Procedure: Measurement of Inhibition of the Tyrosine Kinase Activity of the PDGF Alpha Receptor: The inhibitory effect of the compounds according to the invention towards the tyrosine kinase activity of the PDGF alpha receptor was evaluated on the EOL-1 cell line, which line is established from a leukaemia of constitutively active chronic eosinophilic leukaemia (CEL) type. The EOL-1 line has been described as expressing the fusion protein FIP1L1-PDGF-Rα and is sensitive to kinase inhibitors in proliferation tests (Cools J. et al., Blood 2004, 103, […]). The inhibitory activity is correlated to the inhibition of cell growth. […] After incubation for 72 hours, the viable cells are quantified by measuring the cellular ATP by means of the CellTiter-Glo® kit (Promega, Cat G7571). The cells are treated according to the instructions given by the kit manufacturer, and the luminescence is measured using a Luminoskan (Ascent, Labsystem) with the following parameters: measurement: single; integration time: 1000 ms, lag time: 5 s. It is thus seen that the compounds according to the invention have inhibitory activity on the tyrosine kinase activity of PDGF-Rα. This activity is given by the concentration that inhibits 50% of the proliferation of the EOL-1 cells.

[3] = biological target: T2, fusion protein Tel/PDGF-Rβ (BaF3 Tel/PDGF cells) (Homo sapiens, UniProt P09619); assay: Inhibition of PDGF-Rβ tyrosine kinase activity: proliferation of BaF3 Tel/PDGF cells (CellTiter-Glo, 72 h); type: cell-based, murine; details: 72 hours incubation, read-out: IC50 (concentration that inhibits 50% of the proliferation of the BaF3 Tel/PDGF cells)
T2 construct: the transmembrane and intracellular part of the PDGF-Rβ receptor; N-terminal part of the Tel transcription factor (ETV6); expressed in transfected cells; host or cells: murine haematopoietic cell line BaF/3; the other entry of the earlier key: ETV6 (P41212, Transcription factor ETV6)
Procedure: Measurement of Inhibition of the Tyrosine Kinase Activity of the PDGF Beta (PDGF-Rβ) (Baf-3 tel/PDGFIRβ) Receptor:
This test consists in evaluating the effects of the compounds on the tyrosine kinase activity of the PDGF beta receptor.
The inhibitory effect of the compounds according to the invention towards the tyrosine kinase activity of the PDGF-R receptor was evaluated on the murine haematopoietic cell line BaF/3 transfected with a plasmid coding for the fusion protein Tel/PDGF-Rβ. This fusion protein is found in chronic myelomonocytic myeloid leukaemias (CMML). It comprises the N-terminal part of the Tel transcription factor and the transmembrane and intracellular part of the PDGF-Rβ receptor. This fusion protein is present in dimerized form (presence of an oligomerization domain in the N-terminal part of Tel) and, as a result, leads to constitutive activity of the kinase domain of PDGF-Rβ. This line BaF3 Tel/PDGF has been described in the literature several times and especially, in detailed manner, in the article by M. Carroll et al., PNAS, 1996, 93, 14845-14850.
as §1, with “The BaF3 Tel/PDGF” for “MV4-11”, “phosphate” for “PBS”, “5×10^4” for “1×10^5”, “[…]” for “μL”
It is thus seen that the compounds according to the invention have inhibitory activity on the tyrosine kinase activity of PDGF-Rβ. This activity is given by the concentration that inhibits 50% of the proliferation of the BaF3 Tel/PDGF cells (IC50).

[4] = read-out: IC50 (concentration that inhibits 50% of the proliferation of the EOL-1 cells), 72 hours incubation
[5] = 72 hours incubation, read-out: IC50 (concentration that inhibits 50% of the proliferation of the EOL-1 cells)

T2 sequence (P09619 with tags, fused parts or gaps): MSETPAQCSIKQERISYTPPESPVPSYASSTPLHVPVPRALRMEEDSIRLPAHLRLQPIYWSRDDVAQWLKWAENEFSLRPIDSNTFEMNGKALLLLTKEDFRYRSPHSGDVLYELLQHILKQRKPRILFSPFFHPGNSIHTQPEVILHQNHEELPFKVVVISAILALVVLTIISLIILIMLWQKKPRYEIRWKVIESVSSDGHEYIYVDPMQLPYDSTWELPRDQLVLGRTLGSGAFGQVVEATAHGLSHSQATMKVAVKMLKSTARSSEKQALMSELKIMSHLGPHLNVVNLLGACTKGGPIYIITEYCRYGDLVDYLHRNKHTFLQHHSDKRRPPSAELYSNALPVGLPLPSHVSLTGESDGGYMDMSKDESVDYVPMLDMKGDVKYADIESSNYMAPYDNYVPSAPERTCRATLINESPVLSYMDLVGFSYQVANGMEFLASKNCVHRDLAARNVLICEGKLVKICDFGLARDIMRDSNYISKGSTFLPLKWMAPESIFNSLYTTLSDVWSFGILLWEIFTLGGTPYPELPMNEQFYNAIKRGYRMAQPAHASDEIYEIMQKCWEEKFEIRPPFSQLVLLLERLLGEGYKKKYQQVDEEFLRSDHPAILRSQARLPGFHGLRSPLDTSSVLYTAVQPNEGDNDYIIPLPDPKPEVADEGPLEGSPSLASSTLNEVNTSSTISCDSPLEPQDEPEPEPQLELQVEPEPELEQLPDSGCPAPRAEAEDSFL
fusion protein FIP1L1-PDGF-Rα (EOL-1 cell line), sequence (P16234 579-1089, change not shown): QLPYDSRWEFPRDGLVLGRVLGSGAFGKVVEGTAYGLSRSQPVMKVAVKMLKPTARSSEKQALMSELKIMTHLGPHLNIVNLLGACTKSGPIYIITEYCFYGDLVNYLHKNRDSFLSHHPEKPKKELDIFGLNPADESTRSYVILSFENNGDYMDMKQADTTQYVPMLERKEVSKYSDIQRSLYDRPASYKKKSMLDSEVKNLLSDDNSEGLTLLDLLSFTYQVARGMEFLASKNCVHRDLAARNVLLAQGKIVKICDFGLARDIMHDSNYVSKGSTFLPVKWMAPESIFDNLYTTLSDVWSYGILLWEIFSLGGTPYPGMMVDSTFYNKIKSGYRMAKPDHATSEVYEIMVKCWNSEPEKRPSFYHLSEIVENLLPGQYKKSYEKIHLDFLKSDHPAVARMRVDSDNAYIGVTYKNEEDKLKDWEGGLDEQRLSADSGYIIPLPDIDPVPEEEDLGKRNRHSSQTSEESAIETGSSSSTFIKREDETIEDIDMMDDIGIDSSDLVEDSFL
fusion protein FIP1L1-PDGF-Rα (EOL-1 cell line), sequence (Q6UN15 1-339 partner): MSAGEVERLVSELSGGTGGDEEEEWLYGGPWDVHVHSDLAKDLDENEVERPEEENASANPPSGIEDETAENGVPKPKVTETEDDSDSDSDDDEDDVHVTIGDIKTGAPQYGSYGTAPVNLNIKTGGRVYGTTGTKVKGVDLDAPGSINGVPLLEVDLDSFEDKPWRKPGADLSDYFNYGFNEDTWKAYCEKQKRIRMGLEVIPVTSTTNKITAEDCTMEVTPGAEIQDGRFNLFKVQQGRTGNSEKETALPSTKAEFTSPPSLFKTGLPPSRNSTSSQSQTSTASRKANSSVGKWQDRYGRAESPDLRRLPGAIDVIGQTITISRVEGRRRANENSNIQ

Row | Structure (SMILES) | IC50 [1] [nM] | melting point [°C] | IC50 [2, 5] [nM] | IC50 [3] [nM] | IC50 [2, 4] [nM]
1 | CCn1c(N)c(C(=O)NC)c(=O)c2ccc(-c3ccc(CC(=O)Nc4ccccc4Cl)cc3)nc21 [compound 5, 2-amino-7-(4-{2-[(2-chlorophenyl)amino]-2-oxoethyl}phenyl)-1-ethyl-N-methyl-4-oxo-1,4-dihydro-1,8-naphthyridine-3-carboxamide] | 190 | > 260 |  |  | 1.6
2 | CCn1c(N)c(C(=O)NC)c(=O)c2ccc(-c3ccc(CC(=O)Nc4ccncn4)cc3)nc21 [compound 16, 2-amino-1-ethyl-N-methyl-4-oxo-7-{4-[2-oxo-2-(pyrimidin-4-ylamino)-ethyl]phenyl}-1,4-dihydro-1,8-naphthyridine-3-carboxamide] | 182 | > 280 |  |  | 
3 | CCn1c(N)c(C(=O)NC)c(=O)c2ccc(-c3ccc(CC(=O)Nc4ccccn4)cn3)nc21 [compound 19, 2-amino-1-ethyl-N-methyl-4-oxo-7-{5-[2-oxo-2-(pyrid-2-ylamino)-ethyl]pyrid-2-yl}-1,4-dihydro-1,8-naphthyridine-3-carboxamide] | 100 |  |  | 27 | 0.4
4 | CCN1CCCC1CNC(=O)Cc1ccc(-c2ccc3c(=O)c(C(=O)NC)c(N)n(C4CCCC4)c3n2)cc1 (centres unmarked) [compound 50, 2-amino-1-cyclopentyl-7-[4-(2-{[(1-ethylpyrrolidin-2-yl)methyl]amino}-2-oxoethyl)phenyl]-N-methyl-4-oxo-1,4-dihydro-1,8-naphthyridine-3-carboxamide] |  | 222 |  |  | 3.2
5 | CCn1c(N)c(C(=O)NC)c(=O)c2ccc(-c3ccc(CC(=O)Nc4ccccn4)cc3)nc21 [compound 4, 2-amino-1-ethyl-N-methyl-4-oxo-7-{4-[2-oxo-2-(pyrid-2-ylamino)ethyl]-phenyl}-1,4-dihydro-1,8-naphthyridine-3-carboxamide] | 210 |  |  |  | 
6 | CCN1CCC[C@@H]1CNC(=O)Cc1ccc(-c2ccc3c(=O)c(C(=O)NC)c(N)n(CC)c3n2)cc1 [compound 14, 2-amino-1-ethyl-7-{4-[2-({[(2R)-1-ethylpyrrolidin-2-yl]methyl}amino)-2-oxoethyl]phenyl}-N-methyl-4-oxo-1,4-dihydro-1,8-naphthyridine-3-carboxamide] | 340 | 270 |  | 11 | 
7 | CCn1c(N)c(C(=O)NC)c(=O)c2ccc(-c3ccc(CC(=O)Nc4cccnc4)cc3)nc21 [compound 3, 2-amino-1-ethyl-N-methyl-4-oxo-7-{4-[2-oxo-2-(pyrid-3-ylamino)ethyl]-phenyl}-1,4-dihydro-1,8-naphthyridine-3-carboxamide] | 330 |  |  |  | 

Further lines, with some results ahead:

Row | IC50 [1] [nM] | melting point [°C] | IC50 [2, 5] [nM] | IC50 [3] [nM] | Structure (SMILES) | IC50 [2, 4] [nM]
8 |  |  | 29.7 |  | CCN1CCCC1CNC(=O)Cc1csc(-c2ccc3c(=O)c(C(=O)NC)c(N)n(CC)c3n2)n1 (centres unmarked) [compound 43, 2-amino-1-ethyl-7-[4-(2-{[(1-ethylpyrrolidin-2-yl)methyl]amino}-2-oxoethyl)-1,3-thiazol-2-yl]-N-methyl-4-oxo-1,4-dihydro-1,8-naphthyridine-3-carboxamide] | 
9 |  | 180 | 92.7 |  | CCN1CCCC1CNC(=O)CCCCc1ccc(-c2ccc3c(=O)c(C(=O)NC)c(N)n(CC)c3n2)cc1 (centres unmarked) [compound 51, 2-amino-1-ethyl-7-[4-(5-{[(1-ethylpyrrolidin-2-yl)methyl]amino}-5-oxopentyl)phenyl]-N-methyl-4-oxo-1,4-dihydro-1,8-naphthyridine-3-carboxamide] | 
10 | 130 |  |  | 0.07 | CCN1CCOCC1CNC(=O)Cc1ccc(-c2ccc3c(=O)c(C(=O)NC)c(N)n(CC)c3n2)cc1 (centres unmarked) [compound 22, 2-amino-1-ethyl-7-[4-(2-{[(4-ethylmorpholin-3-yl)methyl]amino}-2-oxoethyl)phenyl]-N-methyl-4-oxo-1,4-dihydro-1,8-naphthyridine-3-carboxamide] | 
